These results are taken from ChEMBL document CHEMBL1201862, “PubChem BioAssay data set” (2004).

Holding throughout (experiment): NCI tumour cell line growth inhibition, 48 h
For assay [1], the system named is CCRF-CEM.
The subject of assay [2] is COLO 205.
The subject of assay [3] is A549.
Assay [4] relates to A498.
Assay [5] concerns OVCAR-4.
Assay [6] has as its system SR.
Assay [7] deals with SF-295.
Assay [8] has as its system KM12.
Assay [9] deals with NCI/ADR-RES.
Assay [10] concerns EKVX.
For assay [11], the system named is 786-0.
The subject of assay [12] is MDA-MB-231.
Assay [13] relates to Malme-3M.
The subject of assay [14] is SK-MEL-28.
Assay [15] concerns HCT-116.
In assay [16] the test system is MDA-N.
Assay [17] deals with BT-549.
Assay [18] deals with OVCAR-8.
In assay [19] the test system is UACC-257.
Assay [20] relates to LOX IMVI.

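Five concentrations, 48 hours, 96-well plates. At the GI50, growth is halved.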 The source made the active and inactive calls. No stated cut-off is given here; in the data, active = GI50 up to about 1.1 µM and inactive = higher.

For `c1ccc(CCN(Cc2nc3ccccc3[nH]2)Cc2nc3ccccc3[nH]2)cc1`, the GI50 is 3.39 µM (inactive) in assay [1]; 13.4 µM (inactive) in assay [2]; 17.1 µM (inactive) in [3]; 13.6 µM (inactive) in assay [4]; 17.5 µM (inactive) in assay [5]; 9.27 µM (inactive) in assay [6]. The GI50 in [7] was 14.8 µM (inactive); in assay [8] it was 12.3 µM (inactive); in assay [9], 5.93 µM (inactive); in assay [10], 39.1 µM (inactive); in [11], 15.9 µM (inactive); in assay [12], 13.2 µM (inactive). Further, the GI50 in [13] was 21.6 µM (inactive); in assay [14] it was 13.7 µM (inactive); in assay [15], 4.67 µM (inactive); in assay [16] it was 16.2 µM (inactive); in [17], 12.1 µM (inactive); in assay [18], 6.18 µM (inactive). The GI50 was 14.5 µM (inactive) in assay [19] and 10.1 µM (inactive) in assay [20].
As to `CCOC(=O)c1ncn(CCc2ccc(Cl)cc2)c1C`, the GI50 in assay [1] was > 100 µM (inactive); in assay [2], > 100 µM (inactive); in assay [3], > 100 µM (inactive); in assay [4], > 100 µM (inactive); in [5], 56.6 µM (inactive); in [6], 68.2 µM (inactive). Also, the GI50 in assay [7] is 70.8 µM (inactive); in assay [8], > 100 µM (inactive); in assay [9], 70.8 µM (inactive); in assay [10] it was > 100 µM (inactive); in assay [11], > 100 µM (inactive); in [12] it was > 100 µM (inactive). For the same compound, the GI50 is > 100 µM (inactive) in assay [13]; > 100 µM (inactive) in assay [14]; > 100 µM (inactive) in assay [15]; 80.5 µM (inactive) in [16]; > 100 µM (inactive) in [17]; > 100 µM (inactive) in [18]. Moreover, the GI50 in [19] and in assay [20] was > 100 µM (inactive) each time.
With `CCOC(=O)/C=C(/C(=O)OCC)n1ccc(=O)[nH]c1=O`, the GI50 is 1.14 µM (inactive) in assay [1]; 1.65 µM (inactive) in assay [2]; 18 µM (inactive) in assay [3]; 20.6 µM (inactive) in assay [4]; 8.61 µM (inactive) in [5]; 4.36 µM (inactive) in assay [6]. For the same compound, the GI50 was 18.7 µM (inactive) in assay [7]; 17.6 µM (inactive) in [8]; 15.5 µM (inactive) in assay [9]; 4.86 µM (inactive) in [10]; 3.36 µM (inactive) in [11]; 10.8 µM (inactive) in [12]. Moreover, the GI50 is 1.9 µM (inactive) in [13]; 6.56 µM (inactive) in assay [14]; 2.48 µM (inactive) in assay [15]; 10.8 µM (inactive) in assay [16]; 12.2 µM (inactive) in assay [17]; 13 µM (inactive) in assay [18]. For the same compound, the GI50 was 12.6 µM (inactive) in [19] and 7.48 µM (inactive) in assay [20].
For the compound `NC(=S)N/N=C/c1c[nH]c2ccccc12`, the GI50 was 10.8 µM (inactive) in [1]; > 100 µM (inactive) in [2]; > 100 µM (inactive) in assay [3]; > 100 µM (inactive) in [4]; > 100 µM (inactive) in [5]; > 100 µM (inactive) in [6]. Besides, the GI50 is > 100 µM (inactive) in assay [7]; > 100 µM (inactive) in assay [8]; > 100 µM (inactive) in assay [9]; 2.86 µM (inactive) in assay [10]; > 100 µM (inactive) in assay [11]; > 100 µM (inactive) in [12]. Also, the GI50 in [13], in assay [14], in assay [15], in [16], in assay [17] and in assay [18] was > 100 µM (inactive) in each case. The GI50 in assay [19] and in [20] was > 100 µM (inactive) each time.
On to `CCC(C)C(NC(=O)C(CCCCN)NC(=O)C(NC(=O)C(CCC(N)=O)NC(=O)C(CCCNC(=N)N)NC(C)=O)C(C)CC)C(=O)NC(Cc1c[nH]c2ccccc12)C(=O)NC(Cc1ccccc1)C(=O)NC(CCC(N)=O)C(=O)NC(CC(N)=O)C(=O)NC(CCCNC(=N)N)C(=O)NC(CCCNC(=N)N)C(=O)NC(CCSC)C(=O)NC(CCCCN)C(=O)NC(Cc1c[nH]c2ccccc12)C(=O)NC(CCCCN)C(=O)NC(CCCCN)C(N)=O` (stereo not given), for which the GI50 in assay [1] is 22.4 µM (inactive); in assay [2], 38.3 µM (inactive); in assay [3], > 50 µM (inactive); in [4], > 50 µM (inactive); in assay [5], > 50 µM (inactive); in assay [6] it was > 50 µM (inactive). In addition, the GI50 in assay [7] is > 50 µM (inactive); in [8], 14.5 µM (inactive); in assay [9], > 50 µM (inactive); in [10], > 50 µM (inactive); in [11], 12 µM (inactive); in [12] it was 14.3 µM (inactive). The GI50 in assay [13] was 34.1 µM (inactive); in [14] it was > 50 µM (inactive); in [15], > 50 µM (inactive); in assay [16] it was > 50 µM (inactive); in assay [17], > 50 µM (inactive); in assay [18] it was 49.2 µM (inactive). Further, the GI50 in assay [19] was 46.5 µM (inactive); in [20], > 50 µM (inactive).
`Cc1ccc(NCC2CC/C(=C\c3ccc(Cl)cc3)C2=O)cc1` (stereo not given): the GI50 in [1] is 2.39 µM (inactive); in assay [2], 14.8 µM (inactive); in [3], 49.4 µM (inactive); in assay [4] it was 30.7 µM (inactive); in assay [5], 24.4 µM (inactive); in assay [6], 3.87 µM (inactive). Besides, the GI50 in [7] is 28.1 µM (inactive); in assay [8] it was 5.66 µM (inactive); in assay [9] it was 33.7 µM (inactive); in assay [10] it was 52.7 µM (inactive); in assay [11], 4.12 µM (inactive); in assay [12], 11.4 µM (inactive). Also, the GI50 in assay [13] is 18 µM (inactive); in [14], 15.6 µM (inactive); in [15], 11.6 µM (inactive); in assay [16], 13.6 µM (inactive); in assay [17], 15.3 µM (inactive); in [18], 15.9 µM (inactive). Moreover, the values for the GI50 in [19] and in assay [20] were 17.4 µM (inactive) and 6.03 µM (inactive), respectively.
As to `COc1ccc(OCc2ccc3nc(-c4ccccc4)c(Cl)nc3c2)cc1`, the GI50 in assay [1] is 15.8 µM (inactive); in [2], 16.6 µM (inactive); in assay [3], 40 µM (inactive); in [4], 26.4 µM (inactive); in assay [5], 19.4 µM (inactive); in assay [6], 28.2 µM (inactive). Besides, the GI50 was 21.7 µM (inactive) in assay [7]; > 100 µM (inactive) in assay [8]; 40.3 µM (inactive) in assay [9]; 50.5 µM (inactive) in assay [10]; 10.6 µM (inactive) in assay [11]; 11.7 µM (inactive) in assay [12]. Also, the GI50 is 12.9 µM (inactive) in [13]; 47.3 µM (inactive) in [14]; 19.2 µM (inactive) in [15]; 52.7 µM (inactive) in [16]; 0.018 µM (active) in assay [17]; 44.7 µM (inactive) in [18]. Besides, the values for the GI50 in [19] and in [20] were > 100 µM (inactive) and 84.5 µM (inactive), respectively.
In the case of `C=C(C)C(=O)O[C@H]1[C@H]2[C@H](OC(=O)[C@H]2C)[C@H](O)[C@@H](C)[C@@H]2C=CC(=O)[C@]21C`, the GI50 is 2.07 µM (inactive) in assay [1]; 3.27 µM (inactive) in assay [2]; 4.16 µM (inactive) in [3]; 2.69 µM (inactive) in assay [4]; 5.64 µM (inactive) in [5]; 1.73 µM (inactive) in [6]. The GI50 in [7] is 4.63 µM (inactive); in assay [8], 2.51 µM (inactive); in assay [9], 3.22 µM (inactive); in assay [10] it was 2.86 µM (inactive); in assay [11], 2.49 µM (inactive); in assay [12], 4.54 µM (inactive). Also, the GI50 in assay [13] was 2.18 µM (inactive); in assay [14] it was 2.26 µM (inactive); in assay [15], 2.32 µM (inactive); in assay [16], 2.58 µM (inactive); in assay [17], 3.83 µM (inactive); in assay [18], 1.94 µM (inactive). In addition, the GI50 is 2.13 µM (inactive) in assay [19] and 2.62 µM (inactive) in assay [20].
On to `CC(NNC(=O)c1cc[n+]([BH2-]C#N)cc1)c1ccccc1` (stereo not given), for which the GI50 in assay [1], in assay [2], in assay [3], in assay [4], in assay [5] and in assay [6] was > 100 µM (inactive) throughout. The GI50 in assay [7], in assay [8], in assay [9], in assay [10], in [11] and in assay [12] was > 100 µM (inactive) throughout. Further, the GI50 in assay [13], in assay [14], in assay [15], in [16], in assay [17] and in assay [18] was > 100 µM (inactive) in each case. Moreover, the GI50 in assay [19] and in [20] was > 100 µM (inactive) each time.
